Laboratory results taken from article PMC4867592, “Targeting multiple response regulators of Mycobacterium tuberculosis augments the host immune response to infection” (Scientific Reports, 2016).
“And” between values parts separate entries of the source, which are not always exact repeats. Identical values can stand only once. Like-named read-outs stand apart in the source and are kept apart here.

Assays:
Mtb [1] = assay type: cell-based, Mycobacterium tuberculosis H37Rv
MprA = molecular target: T1, MprA (Mycobacterium tuberculosis, UniProt P9WGM9); assay: EMSA: binding of phosphorylated MprA to mprA promoter DNA; set-up: species or system Mtb
T1 construct: His (N); made in house; host or cells: E. coli BL21(DE3)
T1 sequence (P9WGM9 1-230): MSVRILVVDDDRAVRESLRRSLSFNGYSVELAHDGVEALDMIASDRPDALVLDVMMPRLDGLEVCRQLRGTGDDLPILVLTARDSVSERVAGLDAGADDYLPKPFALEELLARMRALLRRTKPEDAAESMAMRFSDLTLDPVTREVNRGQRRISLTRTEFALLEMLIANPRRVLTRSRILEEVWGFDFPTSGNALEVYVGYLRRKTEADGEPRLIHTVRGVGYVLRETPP

Mtb [2] = assay: Alamar Blue assay of Mtb growth in vitro; assay type: cell-based, Mycobacterium tuberculosis H37Rv
DosR = molecular target: T2, DosR (Mycobacterium tuberculosis, UniProt P9WMF9); assay: EMSA: binding of phosphorylated DosR (DevR) to hspX promoter-derived DNA; set-up: species or system Mtb
T2 construct: His6; made in house; host or cells: E. coli C43(DE3)
T2 sequence (P9WMF9 whole entry): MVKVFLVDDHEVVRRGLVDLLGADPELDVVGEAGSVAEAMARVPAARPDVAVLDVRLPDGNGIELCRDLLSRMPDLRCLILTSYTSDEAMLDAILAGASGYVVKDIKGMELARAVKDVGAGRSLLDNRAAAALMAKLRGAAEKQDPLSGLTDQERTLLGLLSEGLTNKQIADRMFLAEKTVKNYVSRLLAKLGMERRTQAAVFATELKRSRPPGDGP

[3] = test system: NO release from macrophages; assay: NO (nitrite) release from macrophages, Griess reagent; assay type: cell-based
Experimental: For NO (nitrite) measurements, RAW264.7 was infected with Mtb in DMEM for 24–48 h. Nitrite was measured using Griess reagent (Invitrogen), according to the manufacturer’s instructions. Absorbance was read at 540 nm in an ELISA reader and the concentrations of nitrite were calculated against a standard curve.
(§1) RAW 264.7 cells or hMDMs or BMDMs were seeded at ~3x10^5 cells per well on 18 mm cover slips.
(§2) After infection and treatment with C2 or isoniazid (INH) , the cells were fixed with 4% paraformaldehyde for 10 min at 25°C followed by permeabilisation with 0.01% Triton X-100 in PBS for 10 min at 25°C. The cells were then treated with 10% BSA in PBS for 90 min at 25°C followed by treatment with anti-LC3 antibody at 4°C overnight. Cells were then washed with PBS and treated with Alexa488 conjugated secondary antibody for 90 min at 25°C. Cells were visualized in a Leica confocal […]
(§3) Bacterial CFU determinations
RAW264.7 cells or hMDMs or BMDMs were plated in 48 well plates. Cells were infected with Mtb and treated with C2 or C6 for the desired periods of time. […] CFUs were calculated in triplicate using standard procedures. […] Alamar Blue was added and readings were taken upon development of […]
For NO (nitrite) measurements, RAW264.7 or MDMs or BMDMs were infected with Mtb H37Rv. […] Supernatant nitrite concentrations were measured by reading absorbance at 540 nm and calculated using a standard curve. […]

Mtb [4] = assay: Growth curve of Mtb (absorbance at 600 nm); assay type: cell-based, Mycobacterium tuberculosis H37Rv
Mtb [5] = assay: qRT-PCR / semi-quantitative RT-PCR of Mtb gene expression; assay type: cell-based, Mycobacterium tuberculosis H37Rv
RegX3 = molecular target: T3, RegX3 (Mycobacterium tuberculosis, UniProt P9WGL9); assay: EMSA: binding of phosphorylated RegX3 to ppk1 promoter DNA; set-up: species or system Mtb
T3 construct: made in house; host or cells: E. coli
T3 sequence (P9WGL9 1-227): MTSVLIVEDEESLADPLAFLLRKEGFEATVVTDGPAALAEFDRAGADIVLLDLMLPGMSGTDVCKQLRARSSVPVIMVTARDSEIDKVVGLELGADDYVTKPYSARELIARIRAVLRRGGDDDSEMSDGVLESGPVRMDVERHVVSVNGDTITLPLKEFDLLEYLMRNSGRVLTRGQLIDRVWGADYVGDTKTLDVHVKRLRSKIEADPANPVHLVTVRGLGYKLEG

MtrA = molecular target: T4, MtrA (Mycobacterium tuberculosis, UniProt P9WGM7); assay: EMSA: binding of phosphorylated MtrA to fbpB promoter DNA; set-up: species or system Mtb
T4 construct: Full length MtrA/Rv3246c excluding the stop codon; His (C); made in house; host or cells: E. coli C41(DE3)
T4 sequence (P9WGM7 1-228): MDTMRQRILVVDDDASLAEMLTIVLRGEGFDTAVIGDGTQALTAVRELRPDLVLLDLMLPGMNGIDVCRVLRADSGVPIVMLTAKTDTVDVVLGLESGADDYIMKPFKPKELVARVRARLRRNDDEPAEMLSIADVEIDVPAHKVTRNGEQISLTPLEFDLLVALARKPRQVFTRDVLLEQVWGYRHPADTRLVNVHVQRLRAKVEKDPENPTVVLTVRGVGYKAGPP

Mtb in BMDM = assay: Mtb CFU in infected murine bone marrow derived macrophages; assay type: cell-based, Mycobacterium tuberculosis H37Rv; settings: MOI 5, 20 μM, after 6 days
Mtb in hMDM = assay: Mtb CFU in infected human monocyte derived macrophages; assay type: cell-based, Mycobacterium tuberculosis H37Rv; settings: MOI 5, 20 μM, after 6 days
Mtb Erdman = assay type: cell-based, Mycobacterium tuberculosis Erdman; settings: immunoblot
RAW264.7 = assay: Survival of RAW264.7 measured by Alamar Blue
Mtb-infected macrophages = assay: Autophagy assays in Mtb-infected macrophages (LC3-II immunoblot, LC3 puncta); assay type: cell-based; settings: for LC3 puncta formation in infected macrophages: BMDMs, hMDMs, RAW264.7, C2 20 μM, isoniazid 0.5 µg/ml
Experimental: For autophagy analysis, infected macrophages were lysed and immunoblotted with LC3 antibody. For the visualisation of LC3 puncta, infected macrophages were incubated with LC3 antibody followed by immunostaining with Alexa 488-conjugated secondary antibody. Images were acquired in a Leica confocal microscope. At least 100 cells were counted to enumerate the number of punctated cells. Detailed methods have been provided in the supplemental section.
as §1, §2, §3
RAW264.7 cells or hMDMs or BMDMs were plated in 48 well plates. Cells were infected with Mtb and treated with C2 or C6 for the desired periods of time. Infected cells were lysed in distilled water with 0.06% SDS. Serial dilutions of homogenates were plated on 7H11 agar plates supplemented with 10% OADC and incubated at 37 °C for 3–4 weeks. CFUs were calculated in triplicate using standard procedures. For Alamar Blue assays, bacteria from the cell lysates were washed and transferred to a 96 well plate in MB 7H9. Alamar Blue was added and readings were taken upon development of […]
For NO (nitrite) measurements, RAW264.7 or MDMs or BMDMs were infected with Mtb H37Rv. Control and infected supernatants obtained in the absence or presence of C2, were used for the measurement of nitrite using Griess reagent (Invitrogen), according to the manufacturer’s instructions. Supernatant nitrite concentrations were measured by reading absorbance at 540 nm and calculated using a standard curve. […]

For 2-iminothiazolidine-4-one [Compound 2], the “Retention of pBP10 by Mtb” value (Mtb [1]) was “higher levels of retention of pBP10”, the “Inhibition of binding ability of MprA” value (MprA) was “inhibited” and the IC50 (MprA; densitometry, read-out: IC50, inhibition of MprA binding to mprA promoter) was 4 µM. The “In vitro IC50 against Mtb” value (Mtb [2]) was 6 µg/mL, the “In vitro MIC against Mtb” value (Mtb [2]) was 17 μg/ml and 25 μM and the “In vitro IC50 against Mtb” value (Mtb [2]; listed as C2) was ~ 6 μg/ml. For the same compound, the IC50 (Mtb [2]; read-out: In vitro IC50 against Mtb) was 9 µM, the “Inhibition of DosR binding to hspX promoter-derived DNA fragment” value (DosR) was “did not inhibit binding of DosR” and the “NO release from infected macrophages” value ([3]; Mtb-infected BMDMs, hMDMs, RAW264.7, 20 μM) was “significantly higher”. The “NO release from uninfected macrophages” value ([3]; compound alone, data not shown) was “did not affect NO release”, the “Growth curve of Mtb” value (Mtb [4]) was “levelled off earlier” and the “Expression of activated targets sigB, sigE, Rv0081, ftsI, dnaN, pstS3” value (Mtb [5]; 20 µM) was “repressed”. The “Expression of repressible targets rpfB, gltA1, cydA” value (Mtb [5]; 20 µM) was “augmented”, the esxA expression (Mtb [5]; 20 µM) was “lowered” and the “Expression of espA and espR” value (Mtb [5]; 20 µM, 48 hours of treatment) was “reduced”. The “Expression of mtrA, regX3 and mprA” value (Mtb [5]; exposure for 48 h) was “inhibited”, the “Inhibition of binding ability of RegX3” value (RegX3) was “inhibited the binding ability of RegX3” and the IC50 (RegX3; densitometry, read-out: IC50, inhibition of RegX3 binding to ppk1 promoter) was 18 µM. The “Inhibition of DNA binding activity of MtrA” value (MtrA) was “could inhibit DNA binding activity of MtrA”, the IC50 (MtrA; densitometry, read-out: IC50, inhibition of MtrA binding to fbpB promoter) was 21 µM and the “Decrease in CFU of Mtb in BMDMs” value (Mtb in BMDM) was ~ 8 fold. The “Decrease in CFU of Mtb in MDMs” value (Mtb in hMDM) was ~ 8 fold, the “ESAT-6 in the culture filtrate” value (Mtb Erdman) was “reduced amounts of ESAT-6” and the “Viability of RAW264.7” value (RAW264.7) was “did not affect the viability”. The “LC3 puncta formation in infected macrophages” value (Mtb-infected macrophages) was “enhanced” and the “Conversion of LC3-I to LC3-II” value (Mtb-infected macrophages; Mtb infected RAW 264.7, immunoblot) was “enhanced”.

For `NNC(=O)c1ccncc1` [INH, isoniazid, reference compound], the “LC3 puncta formation in infected macrophages” value (Mtb-infected macrophages) was “enhanced”.
